Test results published in the supplement of paper PMC10307832.

Tests used:
Experiment in all cases: relative viability (nuclei count vs DMSO), 5 days (fraction); higher = more cells survive
[1] = compound: C1CC1C(=O)NC2=NNC3=C2C=CC(=C3)C4=CC(=CC=C4)C(=O)NC5CC5 [XMD13-2] + CC1(C)CCC(c2ccc(Cl)cc2)=C(CN2CCN(c3ccc(C(=O)NS(=O)(=O)c4ccc(N[C@H](CCN5CCOCC5)CSc5ccccc5)c(S(=O)(=O)C(F)(F)F)c4)cc3)CC2)C1 [Navitoclax] (partner 0.5 µM)
How it was run: (§1)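 After 5 days of treatment, lung cancer cells in 1536-well plates were fixed and stained in a single step (final 0.05% Triton X-100, 1% formaldehyde, 1 ug/ml Hoechst) and their nuclei counted on 4× images. Treatment had been applied by pin tool the day after seeding as one drug alone or as a fixed anchor-drug dose with five library-drug doses (not always all listed) in √10 steps. Relative viability is the nuclei count of treated wells divided by that of vehicle wells, and values are medians of duplicate plates.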

[2] = compound: Cc1ccc(C(=O)Nc2cccc(C(F)(F)F)c2)cc1Nc1cncc(C(N)=O)c1 [ALW-II-49-7] + CC1(C)CCC(c2ccc(Cl)cc2)=C(CN2CCN(c3ccc(C(=O)NS(=O)(=O)c4ccc(N[C@H](CCN5CCOCC5)CSc5ccccc5)c(S(=O)(=O)C(F)(F)F)c4)cc3)CC2)C1 [Navitoclax] (partner 0.5 µM)
How it was run: as §1

[3] = compound: Cc1ccc(C(=O)Nc2cccc(C(F)(F)F)c2)cc1Nc1cncc(C(N)=O)c1 [ALW-II-49-7] + C[C@]1(O)C[C@@H](c2nc(-c3ccc4ccc(-c5ccccc5)nc4c3)c3c(N)nccn32)C1 [Linsitinib] (partner 1 µM)
How it was run: as §1

[4] = compound: Cc1ccc(C(=O)Nc2cccc(C(F)(F)F)c2)cc1Nc1cncc(C(N)=O)c1 [ALW-II-49-7] + N=C(N)NC(=N)NCCc1ccccc1 [Phenformin] (partner 250 µM)
How it was run: as §1

Cell Line	relative viability ([1]; first compound 0.05 µM)	relative viability ([1]; first compound 0.1581 µM)	relative viability ([1]; first compound 0.5 µM)	relative viability ([1]; first compound 1.581 µM)	relative viability ([1]; first compound 5 µM)	relative viability ([2]; first compound 0.08 µM)	relative viability ([2]; first compound 0.253 µM)	relative viability ([2]; first compound 0.8 µM)	relative viability ([2]; first compound 8 µM)	relative viability ([3]; first compound 0.08 µM)	relative viability ([3]; first compound 0.253 µM)	relative viability ([3]; first compound 0.8 µM)	relative viability ([3]; first compound 8 µM)	relative viability ([4]; first compound 0.253 µM)	relative viability ([4]; first compound 0.8 µM)	relative viability ([4]; first compound 2.53 µM)	relative viability ([4]; first compound 8 µM)	relative viability ([2]; first compound 2.53 µM)	relative viability ([3]; first compound 2.53 µM)	relative viability ([4]; first compound 0.08 µM)
LK-2	1.19	0.843	0.905	0.957	0.738	0.887	0.802	0.945	0.745	0.546	0.722	0.399	0.654	0.476	0.388	0.48	0.349			
NCI-H441	0.93	0.685	0.715	0.615	0.762	0.591	0.61	0.673	0.745	0.529	0.61	0.432	0.508	0.682	0.817	0.928	0.67	0.572	0.496	0.979
NCI-H23	1.02	0.767	0.822	0.78	0.82	0.968	0.92	0.848	0.787	0.56	0.55	0.68	0.618	0.759	0.705	0.857	0.898	0.766	0.591	0.855
NCI-H647	1.21	1.08	1.23	1.15	0.735	1.03	1.3		0.716	1.1	1.35	1.03	1.05	0.325	0.551	0.539	0.326	0.479	1.04	0.312
201T	1.22	1.25	1.2	1.19	1.29	1.18	1.22	1.21	1.23	1.03	1.06	1.02	1	0.456	0.456	0.477	0.414	1.27	0.983	0.43
NCI-H1734	1	0.883	0.881	0.8	0.741	0.778	0.954	0.822	0.665	0.927	0.911	0.872	0.828	0.359	0.385	0.381	0.335	0.634	0.815	0.345
NCI-H596	0.99	0.975	0.917	0.898	1.15	0.98	0.784	0.85	0.927	1.1	1.08	1.11	1.1	0.706	0.596	0.622	0.788	0.972	1.06	0.804
